Assay results reported in patent publication US20220389061A1, “IMMUNOMODULATORS” (priority 2019, published 2022).
pIC50: −log10 of the molar value. Starred links: 1 amine or outer side, 2 acyl side, 3 side chain; linkers in the order of their positions; H or OH if unused. Positions of bridges follow the written chain, without caps; N, C: chain ends. Non-standard residues stand in square brackets, D forms with d. Residues, ends and D or L forms follow the SMILES beside them. Groups on a side chain read outwards from the residue. *: point of attachment. Trp(1-CH2CO2Me) = COC(=O)Cn1cc(C[C@H](N)C(=O)O)c2ccccc21; Trp(1-CH2COOH) = N[C@@H](Cc1cn(CC(=O)O)c2ccccc12)C(=O)O; X1 = S=C(Nc1ccc2c(c1)Cc1ccccc1-2)*; Pyrazinecarbonyl = O=C(c1cnccn1)*; Hyp = O=C(O)[C@@H]1C[C@@H](O)CN1; X94 = S=C(Nc1ccc(N2CCOCC2)nc1)*; NMeNle = CCCC[C@H](NC)C(=O)O; X85 = S=C(Nc1c(Cl)cccc1Cl)*; NMeA = CN[C@@H](C)C(=O)O; Dab = NCC[C@H](N)C(=O)O; Dap = NC[C@H](N)C(=O)O; X37 = Fc1cc(F)cc(N*)c1; CO = O=C([*:1])[*:2]

molecular target: T1, PD-1/PD-L1 (Homo sapiens, UniProt Q9NZQ7); experiment: PD-1/PD-L1 Homogenous Time-Resolved Fluorescence (HTRF) binding assay; details: PD-L1-His 10 nM pre-incubated with inhibitor, PD-1-Ig 20 nM; read-out: HTRF IC50
T1 construct: TVMV protease site linker (C); made in house; host or cells: HEK293T cells
Procedure, shortened: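 Compounds preincubated 15 min with PD-L1-His (10 nM final), then PD-1-Ig (20 nM final) added for 15 min in dPBS with 0.1% BSA, 0.05% Tween-20. Detection by Eu-cryptate anti-Ig (1 nM) and APC anti-His (20 nM) HTRF.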

T1 sequence (Q9NZQ7 18-239): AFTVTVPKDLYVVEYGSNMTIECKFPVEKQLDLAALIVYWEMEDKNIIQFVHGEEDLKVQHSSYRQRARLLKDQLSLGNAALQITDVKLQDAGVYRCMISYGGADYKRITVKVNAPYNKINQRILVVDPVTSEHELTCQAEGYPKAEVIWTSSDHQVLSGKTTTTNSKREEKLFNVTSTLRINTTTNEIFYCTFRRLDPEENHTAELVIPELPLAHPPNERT

Row | SMILES | pIC50
1 | CCCC[C@H]1C(=O)N(C)[C@@H](CCCC)C(=O)N[C@@H](CC(C)C)C(=O)N[C@H](C(=O)NCC(N)=O)CSCC(=O)N[C@@H](Cc2ccc(O)cc2)C(=O)N(C)[C@@H](C)C(=O)N[C@@H](CC(N)=O)C(=O)N2CCC[C@H]2C(=O)N[C@@H](CNC(=O)Nc2cc(F)cc(F)c2)C(=O)N[C@@H](CC(C)C)C(=O)N2C[C@H](O)C[C@H]2C(=O)N[C@@H](Cc2c[nH]c3ccccc23)C(=O)N[C@@H](CCN)C(=O)N[C@@H](Cc2cn(CC(=O)O)c3ccccc23)C(=O)N1C [Example 1079] ({CH2CO}-Y[NMeA]NP[Dap]([CO-X37])L[Hyp]W[Dab][Trp(1-CH2COOH)][NMeNle][NMeNle]LCG-NH2; thioether N-14) | 8.60
2 | CCCC[C@H]1C(=O)N(C)[C@@H](CCCC)C(=O)N[C@@H](CC(C)C)C(=O)N[C@H](C(=O)NCC(N)=O)CSCC(=O)N[C@@H](Cc2ccc(O)cc2)C(=O)N(C)[C@@H](C)C(=O)N[C@@H](CC(N)=O)C(=O)N2CCC[C@H]2C(=O)N[C@@H](CNC(=S)Nc2ccc3c(c2)Cc2ccccc2-3)C(=O)N[C@@H](CC(C)C)C(=O)N2C[C@H](O)C[C@H]2C(=O)N[C@@H](Cc2c[nH]c3ccccc23)C(=O)N[C@@H](CCNC(=S)Nc2ccc3c(c2)Cc2ccccc2-3)C(=O)N[C@@H](Cc2cn(CC(=O)O)c3ccccc23)C(=O)N1C [Example 2012] ({CH2CO}-Y[NMeA]NP[Dap](X1)L[Hyp]W[Dab](X1)[Trp(1-CH2COOH)][NMeNle][NMeNle]LCG-NH2; thioether N-14) | 7.82
3 | CCCC[C@H]1C(=O)N(C)[C@@H](CCCC)C(=O)N[C@@H](CC(C)C)C(=O)N[C@H](C(=O)NCC(N)=O)CSCC(=O)N[C@@H](Cc2ccc(O)cc2)C(=O)N(C)[C@@H](C)C(=O)N[C@@H](CC(N)=O)C(=O)N2CCC[C@H]2C(=O)N[C@@H](CNC(=S)Nc2ccc(N3CCOCC3)nc2)C(=O)N[C@@H](CC(C)C)C(=O)N2C[C@H](O)C[C@H]2C(=O)N[C@@H](Cc2c[nH]c3ccccc23)C(=O)N[C@@H](CCNC(=S)Nc2ccc(N3CCOCC3)nc2)C(=O)N[C@@H](Cc2cn(CC(=O)O)c3ccccc23)C(=O)N1C [Example 1093] ({CH2CO}-Y[NMeA]NP[Dap](X94)L[Hyp]W[Dab](X94)[Trp(1-CH2COOH)][NMeNle][NMeNle]LCG-NH2; thioether N-14) | 8.48
4 | CCCC[C@H]1C(=O)N(C)[C@@H](CCCC)C(=O)N[C@@H](CC(C)C)C(=O)N[C@H](C(=O)NCC(N)=O)CSCC(=O)N[C@@H](Cc2ccc(O)cc2)C(=O)N(C)[C@@H](C)C(=O)N[C@@H](CC(N)=O)C(=O)N2CCC[C@H]2C(=O)N[C@@H](CNC(=S)Nc2c(Cl)cccc2Cl)C(=O)N[C@@H](CC(C)C)C(=O)N2C[C@H](O)C[C@H]2C(=O)N[C@@H](Cc2c[nH]c3ccccc23)C(=O)N[C@@H](CCN)C(=O)N[C@@H](Cc2cn(CC(=O)O)c3ccccc23)C(=O)N1C [Example 1038] ({CH2CO}-Y[NMeA]NP[Dap](X85)L[Hyp]W[Dab][Trp(1-CH2COOH)][NMeNle][NMeNle]LCG-NH2; thioether N-14) | 8.62
5 | CCCC[C@H]1C(=O)N(C)[C@@H](CCCC)C(=O)N[C@@H](CC(C)C)C(=O)N[C@H](C(=O)NCC(N)=O)CSCC(=O)N[C@@H](Cc2ccc(O)cc2)C(=O)N(C)[C@@H](C)C(=O)N[C@@H](CC(N)=O)C(=O)N2CCC[C@H]2C(=O)N[C@@H](CNC(=O)c2cnccn2)C(=O)N[C@@H](CC(C)C)C(=O)N2C[C@H](O)C[C@H]2C(=O)N[C@@H](Cc2c[nH]c3ccccc23)C(=O)N[C@@H](CCNC(=O)c2cnccn2)C(=O)N[C@@H](Cc2cn(CC(=O)OC)c3ccccc23)C(=O)N1C [Example 1002] ({CH2CO}-Y[NMeA]NP[Dap](Pyrazinecarbonyl)L[Hyp]W[Dab](Pyrazinecarbonyl)[Trp(1-CH2CO2Me)][NMeNle][NMeNle]LCG-NH2; thioether N-14) | 8.46
